# In US20250197355A1, “TEAD Targeting Compounds and Methods Thereof” (Agency for Science, Technology and Research, priority 2022, published 2025):
# Legend:
# Type in all cases: cell-based
# [1] = Colony forming assay for compound 2 and 38 (treatment and 5 days recovery); conditions: treatment and recovery (5 days)
# [2] = biological target: T1, TEAD4 binding to YAP and TAZ (Homo sapiens, UniProt Q15561); assay: GFP-TRAP assay to pull down TEAD4 binders in U20S cells expressing GFP fused TEAD4; conditions: U20S cells expressing GFP fused TEAD4, 10 uM
# T1 construct: expressed in transfected cells
# T1 sequence (Q15561 whole entry, the tested form may be a part): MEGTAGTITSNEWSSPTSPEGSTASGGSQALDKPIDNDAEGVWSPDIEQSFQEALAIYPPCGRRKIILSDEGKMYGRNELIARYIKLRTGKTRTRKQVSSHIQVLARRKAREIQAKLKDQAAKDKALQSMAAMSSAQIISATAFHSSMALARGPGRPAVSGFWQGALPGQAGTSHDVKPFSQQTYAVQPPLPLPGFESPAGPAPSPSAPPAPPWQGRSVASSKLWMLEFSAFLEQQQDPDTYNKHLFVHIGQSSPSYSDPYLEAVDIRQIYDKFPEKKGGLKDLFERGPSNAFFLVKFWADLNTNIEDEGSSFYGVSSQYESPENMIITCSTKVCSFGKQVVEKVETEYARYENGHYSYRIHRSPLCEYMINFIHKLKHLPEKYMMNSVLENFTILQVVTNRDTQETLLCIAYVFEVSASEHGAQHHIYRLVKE
# Procedure: GFP-TRAP assay: To purify TEAD4 binders, GFP-Trap Magnetic Agarose (gtma-100) was used, and assay was performed strictly according to manufacturer's instructions. At the end of the assay, agarose beads were resuspended in 2×LDS lysis buffer, competing amount of DTT was added into it and samples were boiled for 3 minutes. Supernatants were collected and used for immunoblotting.
# To determine whether CPD10 or 13 leads downregulation of TEAD4 binding to its transcriptional targets YAP and TAZ, U20S cells stably expressing GFP alone and GFP fused TEAD4 were either mock-treated or treated with indicated doses of CPD10. GFP-TRAP assay was performed to pull down TEAD4 binders, and immunoblotted. As one of the strong binders of the TEAD4, YAP/TAZ protein signal were detected in purified complex. […] The GFP blot indicating the GFP and GFP fused TEAD4 signal in whole cell lysates and purified protein samples (C).
# [3] = system: TEADs transcriptional target genes; assay: RT PCR transcriptional profiling of TEADs target genes in A549 cells; conditions: for NFKB1 relative expression (RT PCR) / c-MYC relative expression (RT PCR): low dose; for YAP/TAZ relative expression (RT PCR): low dose (2.5 μM of CPD10)
# Procedure: Method: A549 cells (at 60% confluency) either mock treated or treated with indicated doses of CPD 10 and CPD13 for 24 hrs. Cells were washed with ice-cold 1×PBS. RNA extraction was performed with Quick-RNA™ miniprep kit (Zymo Research, Cat. No. R1055), strictly according to manufacturer's instructions. Nanodrop quantified 2 μg of RNA samples were used for cDNA synthesis with cDNA Reverse Transcription Kit (Thermo Cat. No. 4368814) strictly according to the manufacturer's instructions. In RT PCR experiment, comparative target gene expression was performed by SYBR™ Green (Thermo Cat. No. 4309155) Master mix. Relative target gene expressions were compared and plotted on Y-Axis.
# Result: Relative expression of YAP and TAZ in response to low dose of CPD10 (A) and CPD13 (B) treatment in A549 cells. c-MYC was included as non-transcriptional target of the TEADs. NFKB1 was included as its expression is reciprocal to the YAP/TAZ. Downstream effectors of the TEADs targets (CYR61, AXL, CTGF and ANKRD1) were determined in responses to 2.5, 5 and 10 μM of CPD10 (C) and CPD13 (D).
# CPD10 and CPD13 Downregulate the TEADs transcriptional target genes: To determine CPD10 and CPD13 induced relative expression of TEADs target genes, A549 cells were treated with indicated doses for 24 hrs. Transcriptional profiling was performed with respective primer pairs. […] Further we tested the expression of one of the strong non hippo transcription factor, the C-Myc. As expected, c-MYC expression was not affected in response to CPD10 treatment (A). […] C-Myc expression was not affected. […] An Increase of NFKB1 expression is consistent with significant downregulation of YAP expression in response to CPD13 treatment (B). To determine the state of TEADs transcriptional target genes at higher concentrations, A549 cells were treated with indicated doses of compounds and analyzed for the expression of CYR61, AXL, CTGF and ANKRD1.
# [4] = system: U20S cells; assay: Colony forming assay in U20S cells depleted of or overexpressing TEAD4; conditions: for TEAD4 dependence of cellular sensitivity (siRNA depletion, colony forming): U20S cells, control siRNA vs TEAD4 siRNA
# Procedure: (§1) In colony forming assay, indicated cells were plated at 5,000 cells density in 2 ml of DMEM medium. TEAD4 depletion was performed by reverse transfection with 20 nM of Dharmacon smart pool NTsiRNA and TEAD4 siRNA in 2.5 ul of lipofectamine mixed with 25% of OPTIMEM. After 18 hrs of transfection, cells were either DMSO treated or treated with indicated compounds at different doses. After 48 hrs of the treatment cells were recovered in a fresh medium for 4 days. At the end of the experiment cells were Glutaraldehyde fixed and stained in crystal violet solution for 2 hrs. After washing, plates were scanned for image processing.
# In line with proliferation assay we performed colony forming assay in U20S cells either depleted or overexpressing TEAD4. Cells stably expressing GFP and GFP fused TEAD4 were also included in this assay.
# [5] = system: NCI-H226 mesothelioma cells; assay: Colony forming assay in NCI-H226 mesothelioma cells
# Procedure: as §1
# Colony forming assay was essentially performed as described in previous section.
# [6] = system: A549 cells; assay: Cell proliferation assay (Cell Titre Glow) in A549 cells with TEAD4 depletion; conditions: TEAD4 depleted A549 cells, compared with NTsi treated cells
# Procedure: (§2) Method: Indicated cells were plated at 3000 cells/80 μl in each well. TEAD4 depletion was performed by reverse transfection with 20 nM of Dharmacon smart pool NTsiRNA and TEAD4 siRNA in 0.25 ul of lipofectamine mixed with 25% of OPTIMEM. After 18 hrs of transfection, cells were recovered for 24 hrs in fresh DMEM medium. Cells were treated with indicated compounds at different doses. After 48 hrs of dosing cells were recovered in fresh medium for 3 days. Cell Titre Glow (CTG) assay was used.
# (§3) U20S cells stably expressing GFP fused TEAD4 and GFP alone were treated with different doses of CPD10 and analysed for cellular proliferation. […] Further we used cell lines expressing higher level of TEAD4 and performed depletion experiment followed by comparative sensitivity analysis.
# [7] = biological target: T2, GFP-TEAD4 (Homo sapiens, UniProt Q15561); assay: TEAD4 localization imaging in U20S cells stably expressing GFP-TEAD4; conditions: 10 μM, 18 hrs
# T2 construct: expressed in transfected cells
# T2 sequence (Q15561 whole entry): as the sequence (Q15561 whole entry, the tested form may be a part) above
# Procedure: Methods: U20S cells stably expressing GFP-TEAD4 were seeded at 50,000 cell densities onto glass cover slips in six well plates. Next day, cells were either DMSO treated or treated with indicated compounds at 10 μM concentrations. After 18 hrs of treatment cells were washed and fixed in 4% formaldehyde for 20 minutes. Blocking was done in 3% BSA dissolved in PBST for 1 hour. Cell were incubated with indicated antibodies for overnight in a cold room. Next day, after washing 3× in PBST samples were incubated with respective secondary antibodies for 45 minutes at room temperature. After washing nuclear staining was done with DAPI for 10 minutes. Coverslips were added onto glass slides with the help of mounting medium. After drying, cells were imaged at 63× objective and processed with ZEN x64 blue software.
# Result: In DMSO treated control samples we observed very nuclear localized TEAD4 (green) signal, strongly imposed to the DAPI signal. Nuclear and cytoplasmic YAP and TAZ was observed either in DMSO or in compound treated cells.
# [8] = biological target: T3, YAP-TEAD binding (Homo sapiens, UniProt Q15561); assay: Endogenous TEAD4 immunoprecipitation in NCI-H226 mesothelioma cells; conditions: 24 hrs, indicated concentrations
# T3 construct: Endogenous TEAD4 IP; endogenous in cells; host or cells: NCI-H226 mesothelioma cells
# T3 sequence (Q15561 whole entry): as the sequence (Q15561 whole entry, the tested form may be a part) above
# Procedure: Evaluation of CPD10 and CPD13 in NCI-H226 mesothelioma cell line: Actively growing cells were either DMSO added or treated with indicated concentrations of CPD10 and CPD13 for 24 hrs. Cells were collected in ice-cold PBS and pellets were lysed in IP Lysis Buffer (25 mM Tris-HCl pH 7.4, 150 mM NaCl, 1 mM EDTA, 1% NP-40 and 5% glycerol and competing amount of protease inhibitor). Samples were lysed by sonication, BCA assay was performed and equal concentration of protein were added with TEAD4 antibody (3 ul). After overnight incubation in cold room, samples were added with anti-rabbit magnetic beads to trap the TEAD and binding complex for 2 hrs. Samples were washed 3 times and bound fraction were collected with the help of magnetic stand. Samples were added with 4×LDS, competing amount of DTT, and boiled for 3 minutes. Whole cell lysate (Input) and IP samples were resolved in 8% SDS-PAGE gel and immunoblotted with indicated antibodies.
# (§4) Relative quantification of immunoblot signals were quantified with IMAGE J software. Actively growing cells were added with indicated concentrations of CPD10 and CPD13 and cells were collected after 24 hrs. RNA was extracted and cDNA was synthesized. Indicated primer pairs were used for RT-PCR. Relative gene expression was determined by using GAPDH amplification.
# [9] = system: TEAD transcriptional target genes; assay: RT-PCR profiling of YAP-TEAD transcriptional target genes in NCI-H226 cells; conditions: 24 hrs
# Procedure: as §4
# [10] = system: U20S cells; assay: Cell proliferation assay (Cell Titre Glow) in U20S cells
# Procedure: as §2, §3
# [11] = system: hippo signaling target proteins (TEAD4, Pan-TEADs, YAP, TAZ); assay: Immunoblotting of hippo signaling target proteins in A549 whole cell lysates; conditions: A549 cells, 24 hrs; for wild type p53 expression (immunoblot): same protein samples
# Procedure: Method: A549 cells (at 60% confluency) either mock treated or treated with indicated doses of CPD10 and CPD13 for 24 hrs. Cells were washed with ice-cold 1×PBS and lysed in protein lysis buffer. Whole cell lysates were quantified by Pierce™ BCA Protein assay kit (Catalog number: 23225) and denatured in 4×LDS buffer (Thermo catalog number: NP0007) added with competing amount of DTT followed by boiling for 3 minutes. Samples were resolved in 8% of SDS-PAGE, transferred onto nitrocellulose membrane and immunoblotting was performed with indicated antibodies.
# Result: To determine the CPD10 and CPD13 mediated expression of hippo signaling target proteins in A549 cells, whole cell lysates from mock treated and compounds treated cells were immunoblotted to determine the level of TEAD4, Pan-TEADs, YAP, TAZ proteins. […] Similar to CPD10, CPD13 downregulate YAP expression at 10 Um (B). To determine the level of other transcriptional targets, we tested the p53 protein in same sets of protein samples. […] GAPDH was used as loading control.
# [12] = system: CTGF and CYR61 transcripts; assay: RT-qPCR of Hippo-dependent gene transcripts in A549
# Procedure: (§5) MGH-CP1 (positive control) and Cpd 13 were tested on MCF10 and A549.
# [13] = system: CTGF and CYR61 transcripts; assay: RT-qPCR of Hippo-dependent gene transcripts in MCF10
# Procedure: as §5
Compound,TEAD dependence of induced cell sensitivity (colony forming assay) [1],"AXL relative expression (RT PCR) ([3]; 24 hrs, 2.5, 5 and 10 μM)","CTGF relative expression (RT PCR) ([3]; 24 hrs, 2.5, 5 and 10 μM)","CYR61 relative expression (RT PCR) ([3]; 24 hrs, 2.5, 5 and 10 μM)",NFKB1 relative expression (RT PCR) ([3]; 24 hrs),c-MYC relative expression (RT PCR) ([3]; 24 hrs),YAP/TAZ relative expression (RT PCR) ([3]; 24 hrs),"TEAD4 dependence of cellular sensitivity (siRNA depletion, colony forming) [4]",colony forming sensitivity [5],cytoplasmic localization of the TEAD4 protein [7],nuclear TEAD4 presence [7],"YAP-TEAD binding (TEAD4 IP, immunoblot) [8]",TEAD transcriptional target genes expression (RT-PCR) [9],wild type p53 expression (immunoblot) [11],also measured
C=CS(=O)(=O)CCC(=O)Nc1cc(-c2ccccc2)cnc1C [CPD2],not TEAD dependent,–,–,–,–,–,–,–,–,–,–,–,–,–,–
C=CS(=O)(=O)CCC(=O)Nc1nn(-c2ccccc2)cc1C [CPD10],–,suppressed at 2.5 μM and subsequently downregulated in a dose dependent manner,suppressed at 2.5 μM and subsequently downregulated in a dose dependent manner,suppressed at 2.5 μM and subsequently downregulated in a dose dependent manner,minor increase,not affected,downregulated,TEAD4 dependent,strongly sensitizes,induction of cytoplasmic localization,didn't diminish,disrupted to a great extent,repression,didn't resulted in change,"YAP/TAZ binding to TEAD4 (GFP-TRAP pull down, immunoblot) [2]: significantly reduced; ANKRD1 relative expression (RT PCR) ([3]; 24 hrs, 10 μM): significantly reduced; colony forming sensitivity ([4]; U20S cells overexpressing GFP fused TEAD4, in comparison to GFP alone): very high sensitivity; colony forming sensitivity ([4]; U20S cells treated with control siRNA, unlike TEAD4 depleted cells, 2.5 μM): very high sensitivity; cellular proliferation sensitivity [6]: lower sensitivity; cellular proliferation sensitivity ([10]; U20S cells expressing GFP alone, low dose): didn't display sensitivity; cellular proliferation sensitivity ([10]; U20S cells overexpressing GFP-TEAD4, below 5 uM): higher sensitivity; TAZ expression (immunoblot) ([11]; 10 Um): significantly reduced; TEAD4 and pan-TEAD expression (immunoblot) ([11]; highest concentration): reduced; YAP expression (immunoblot) ([11]; indicated doses): downregulated in a dose dependent manner"
C=CS(=O)(=O)CCC(=O)Nc1nc(C2CCCCC2)c(C)s1 [CPD13],–,further downregulated in a dose dependent manner,further downregulated in a dose dependent manner,further downregulated in a dose dependent manner,Increase,not affected,significant reduction,TEAD4 dependent,strongly sensitizes,induction of cytoplasmic localization,didn't diminish,disrupted to a great extent,repression,didn't resulted in change,"CTGF and CYR61 transcripts (RT-qPCR) [12]: dose dependent decrease; ANKRD1 relative expression (RT PCR) ([3]; 24 hrs, 2.5, 5 and 10 μM): further downregulated in a dose dependent manner; colony forming sensitivity ([4]; TEAD4 depleted cells, unlike control siRNA treated cells): less sensitive; CTGF and CYR61 transcripts (RT-qPCR) [13]: dose dependent decrease; YAP expression (immunoblot) ([11]; 10 Um): downregulate"
C=CS(=O)(=O)CCC(=O)Nc1cnn(-c2ccccc2)n1 [CPD38],not TEAD dependent,–,–,–,–,–,–,–,–,–,–,–,–,–,–
